Legend:
HEK 293 cells = experiment: Cytotoxicity test, CCK-8 assay; assay type: cell-based, human; details: CCK-8, absorbance 450 nm, FIGS. 4a, 4b
Experimental: In order to confirm that the luciferase activity is inhibited due to TGF-β inhibitor, rather than apoptosis, a CCK-8 survival rate assay kit (Dojindo, Japan) was used and an absorbance was measured at a wavelength of 450 nm by using a spectrophotometer (Labsystems, U.S.A.) to count the number of cells. The shown values are average values obtained from three independent experiments.

H1299 = experiment: Apoptosis of lung cancer cells alone or with doxorubicin, CCK-8 viability assay; assay type: cell-based; details: 48 h; for apoptosis effect together with doxorubicin: H1299, compound added 2 h before doxorubicin 0.05 µM; for apoptosis: H1299, compound alone at 5 µM or more, FIGS. 9a, 9c
Experimental: TGF-βis known to have contrasting effects related to a tumor. That is, at an initial stage, TGF-β suppresses tumor growth, but at a latter stage, promotes metastasis or infiltration of a tumor. Thus, apoptosis of tumor cell lines caused by compound I and II, and apoptosis of tumor cell lines caused by compound I or II in combination with doxorubicin, an anti-cancer agent, were measured. […] The tumor cells were treated with compound I or II at the concentrations shown in FIG. 9, and 2 hours later, doxorubicin was added thereto. Then, the cells were incubated for 48 hours under the conditions described above and then, quantified using a CCK-8 viability assay kit (Dojindo, Japan).

HSC-T6 cells = experiment: Serum-induced proliferation of hepatic stellate cells, CCK-8 assay; assay type: cell-based, human; details: added 2 h before serum, 48 h
Experimental: HSC-T6 cells, a stable cell line made by professor S.L. Friedman at Mount Sinai in U.S. A., were obtained and used as hepatic stellate cells (HSC), which are employed mainly as a subject for liver fibrosis. HSC-T6 cells were c under 5% CO2 at a temperature of 37°C in a DMEM supplemented with 10% FBS, 100 units/ml of penicillin, and 100 µg/ml of streptomycin. In order to identify whether compounds I and II directly affect proliferation of hepatic stellate cells, the incubation was performed in a serum-free medium for 24 hours and then the culture was treated with 1, 10, and 20 µM of the compounds I and II, 2 hours prior to addition of serum thereto. Subsequently, under the condition described above, the incubation was further performed for 48 hours and then a CCK-8 assay kit was used to measure cell viability. Absorbance was measured at a wavelength of 450 nm by using a spectrophotometer (Labsystems, U.S.A.) to count the number of cells.

H1299 cells = experiment: Apoptosis alone or with radiation, Annexin-PI staining and FACS assay; assay type: cell-based; details: 48 h; for effect on apoptosis together with radiation compared to compound or radiation alone: H1299, 6 Gy
Experimental: H1299, a cell strain of lung cancer, which is generally treated by radiation therapy, was treated with radiation in combination with compound I or II, and apoptosis thereof was measured. Compound I or II was added to H1299 cells inoculated to a 6 cm cell incubation plate as described in Example 3, and two hours later, 6 Gy of radioactive rays were irradiated thereto, and 48 hours later, apoptosis was measured by Annexin-PI staining and FACS assay. […] Table 2 [Table 2]

TGF-β = TGF-β inhibitor screening, 3TP-pGL2 luciferase reporter in transformed HEK 293 cells; assay type: cell-based, human; details: compound added 2 h before 0.5 ng/ml TGF-β, FIGS. 3a, 3b
From the text: In order to screen an agent for inhibiting TGF-β cells stably transformed by luciferase-expressing plasmids were used to measure an effect on TGF-β activity.
A plasmid with a Smad binding site and a […] activator inhibitor (PAI) promoter, obtained from professor Carlos Arteaga at the University of Vanderbilt in US, was inserted into pGL2-Null reporter plasmid (Promega, U.S.A.). […] The plasmid was used to transform human embryonic kidney (HEK) 293 cells according to the manufacturer s specification, using Lipofectamine 2000 (Invitrogen, Calsbad, CA, USA), thereby constructing a system for screening an effect on TGF-β activity by measuring luciferase activity. The activity of luciferase was measured using a Dual Luciferase Assay kit (Promega, Medison, WI, USA). […]
The HEK 293 cells transformed were inoculated into a 96-well plate at 20,000 cells/ well in triplicates and then incubated under the condition as described above for 24 hours. Then, TGF-β was added thereto at concentrations of 0.5, 1, and 5 ng/ml and after 15-hour incubation, luciferase activity was measured. […]
By using the screening system as described above, a TGF-β inhibition effect was tested on 8,000 compounds in a compound library. […] Then, the luciferase activity was measured as described above. […]

[1] = H1299, compound 5 µM + radiation (6 Gy) 2 h later

Compound: Cc1cn2c(nc3c2c(=O)n(Cc2ccccc2Cl)c(=O)n3C)[nH]1 [compound I, 3-(2-chlorobenzyl)-1,7-dimethyl-1H-imidazo[2,1-f]purine-2,4(3H,8H)-dion]
- cell count (cytotoxicity) (HEK 293 cells): no significant decrease in the cell count
- apoptosis effect together with doxorubicin (H1299): additive or synergistic apoptosis effects
- apoptosis (H1299): apoptosis occurred
- proliferation of hepatic stellate cells (HSC-T6 cells; 1, 10 and 20 µM, FIG. 5a): almost completely blocked
- effect on apoptosis together with radiation compared to compound or radiation alone (H1299 cells): synergistic effect on apoptosis
- Apoptosis (%, average±SEM) (H1299 cells; [1]): 73.42±1.84%
- Apoptosis (%, average±SEM) (H1299 cells; H1299, compound 5 µM alone): 20.86±1.03%
- TGF-β activity (luciferase activity) (TGF-β): inhibit TGF-β activity in a concentration-dependent way

Compound: Cc1[nH]c2nc3c(c(=O)n(Cc4c(F)cccc4Cl)c(=O)n3C)n2c1C [compound II, 3-(2-chloro-6-fluorobenzyl)-1,6,7-trimethyl-1H-imidazo[2,1-f]purine-2,4(3H,8H)-dion]
- cell count (cytotoxicity) (HEK 293 cells): no significant decrease in the cell count
- apoptosis effect together with doxorubicin (H1299): additive or synergistic apoptosis effects
- apoptosis (H1299): apoptosis occurred
- inhibition at 1 µM (HSC-T6 cells; Homo sapiens, HSC-T6, 1 µM, FIG. 5b, read-out: proliferation of hepatic stellate cells inhibited): 12%
- inhibition at 10 µM (HSC-T6 cells; Homo sapiens, HSC-T6, 10 µM, FIG. 5b, read-out: proliferation of hepatic stellate cells inhibited): 25%
- inhibition at 20 µM (HSC-T6 cells; Homo sapiens, HSC-T6, 20 µM, FIG. 5b, read-out: proliferation of hepatic stellate cells inhibited): 30%
- effect on apoptosis together with radiation compared to compound or radiation alone (H1299 cells): synergistic effect on apoptosis
- Apoptosis (%, average±SEM) (H1299 cells; [1]): 55.91±5.58%
- Apoptosis (%, average±SEM) (H1299 cells; H1299, compound 5 µM alone): 14.79±0.78%
- TGF-β activity (luciferase activity) (TGF-β): inhibit TGF-β activity in a concentration-dependent way
